Experimental findings from patent US9249157B2, “Tricyclic heterocycle compounds” (BRISTOL-MYERS SQUIBB COMPANY, priority 2012, dated 2016) are described below.

A word on the IC50: it is the concentration that gives 50% inhibition. A high value points to weaker potency in that assay.

In one experiment the test system is human tumor xenografts. Nature of the experiment: Human Tumor Xenograft Models in Mice (tumor type not stated). It is filed as in vivo. As to conditions: for antitumor activity with oral administration (PO): Human Tumor Xenograft Models in mice. An excerpt:
Human Tumor Xenograft Models in Mice
All rodents were obtained from Harlan Sprague Dawley Co. (Indianapolis, Ind.), and maintained in an ammonia-free environment in a defined and pathogen—free colony. All mice were quarantined approximately 1 week prior to their use for tumor propagation and drug efficacy testing. Mice were fed food and water ad libitum. The animal care program of Bristol-Myers Squibb Pharmaceutical Research Institute is fully accredited by the American Association for Accreditation of Laboratory Animal Care (AAALAC). All experiments were performed in accordance with Bristol-Myers Squibb (BMS) animal test methods and guidelines.
Tumor xenografts were grown and maintained subcutaneously (SC) in immunocompromized balb/c nu/nu nude or NOD-SCID mice (Harlan Sprague Dawley). Tumors were propagated as subcutaneous transplants in the appropriate mouse strain (Table 10) using tumor fragments obtained from donor mice.
The required numbers of animals needed to detect a meaningful response were pooled at the start of the experiment and each was given a subcutaneous implant of a tumor fragment (˜20 mg) with a 13-gauge trocar. Tumors were allowed to grow to the pre-determined size window (tumors outside the range were excluded) and animals were evenly distributed to various treatment and control groups. […]
Tumor response was determined by measurement of tumors with a caliper twice a week, until the tumors reached a predetermined “target” size of 0.5 gm or 1 gm depending on the tumor type. […]
Tumor response criteria are expressed in terms of tumor growth inhibition (% TGI). […] For this purpose, the tumor weight of a group is expressed as medium tumor weight (MTW).
Whenever possible, antitumor activity was determined at a range of dose levels up to the maximum tolerated dose (MTD) which is defined as the dose level immediately below which excessive toxicity (i.e., more than one death) occurred. When death occurred, the day of death was recorded. […]
On the technique in general: In xenograft studies the graft and the host belong to different species.

A further experiment has as its system human Notch 3. Nature of the experiment: Notch-CBF1 Transactivation Assay (Notch 3). Particulars: HeLa cells transfected with truncated Notch 3 and CBF1 luciferase reporter; 18 hours incubation. It is filed as cell-based. The source says:
(§1) Notch-CBF1 Transactivation Assay
(§2) The Notch-CBF1 (C-promoter binding factor I) cell based transactivation assay is based on the ability of the released Notch intracellular domain fragments (NICDs) to function as transcription factors in conjunction with CBF1 and other nuclear factors. Luciferase assays were used to measure the antagonism of Notch-CBF1 transcriptional activity. HeLa cervical cancer cells are transiently co-transfected with pCDNA3.1/Hygro plasmids containing truncated Notch 1, Notch 2, Notch 3, or Notch 4 receptors and a PGL3 luciferase reporter vector containing 4 copies of CBF1 binding site. The cells were then tested for Notch-CBF1 activity in the absence or presence of test compounds. HeLa cells, maintained in DMEM (high glucose with HEPES), 1× glutamine/penicillin/streptomycin and 10% Fetal Bovine serum, were transiently transfected in a T175 Flask (4.5×10^6 cells/flask) using the Monster Transfection Kit (Minis #MIR2906) according to manufacturers specifications. Table 1 denotes respective DNA quantity for the transfections.
(§3) Six hours post-transfection, cells were trypsinized and plated into a 384-well black Poly-D-lysine coated tissue culture plate at a density of 5×10^3 cells/well in 95 μL assay media (DMEM (high glucose with HEPES), 1× glutamine/penicillin/streptomycin, 0.0125% BSA, 1× non-essential amino acids). Assay media (5 μL) containing test compounds in final concentrations ranging from 5 μM to 8.4×10^−5 μM (3 fold serial dilutions) were added to the cells and the cell plates were then incubated for 18 hours at 37° C. and 5% CO2. Control wells contained DMSO vehicle (total counts) or 0.5 μM of an in-house small molecule inhibitor (background counts). Duplicates were used for each sample. Luciferase activity was measured after a 20-minute incubation with 50 μl STEADY-GLO® luciferase reagents according to manufacturer's specifications (Promega, Cat. #E2550) and analyzed by Envision plate reader (PerkinElmer, Boston, Mass.).
(§4) The antagonist effect of compounds was expressed as 100×[1−(average sample−average background)/(average total−average background)] where sample is the luciferase activity in the presence of test compound, background is equal to the luciferase activity in the presence of the small molecule inhibitor control and the total is signal induced in DMSO wells.

Another experiment has as its system human Notch 1. Nature of the experiment: Notch-CBF1 Transactivation Assay (Notch 1). The class given is cell-based. Particulars: HeLa cells transfected with truncated Notch 1 and CBF1 luciferase reporter; 18 hours incubation.
Excerpt: as §1, §2, §3, §4
On the technique in general: In a reporter assay the amount or activity of a reporter protein is the signal.

Regarding `Cc1nocc1[C@H](C(N)=O)[C@@H](CCC(F)(F)F)C(=O)N[C@H]1N=C(c2ccccc2)c2cccc3c2N(CC(F)(F)CO3)C1=O` [Example 1, (2R,3R)—N-((7S)-3,3-Difluoro-6-oxo-9-phenyl-3,4,6,7-tetrahydro-2H-[1,4]diazepino[1,7,6-ef][1,5]benzoxazepin-7-yl)-3-(3-methyl-4-isoxazolyl)-2-(3,3,3-trifluoropropyl)succinamide], the “antitumor activity with oral administration (PO)” value in the experiment on human tumor xenografts is “showed antitumor activity”. The “antitumor activity, intravenous route (IV)” value with human tumor xenografts (human tumor xenografts implanted in mice, IV) is “exhibited antitumor activity”. As to `NC(=O)[C@@H](CC1CC1)[C@@H](CCC(F)(F)F)C(=O)N[C@H]1N=C(c2ccccc2)c2cccc3c2N(CC(F)(F)CO3)C1=O` [Example 2, (2R,3S)-3-(Cyclopropylmethyl)-N-((7S)-3,3-difluoro-6-oxo-9-phenyl-3,4,6,7-tetrahydro-2H-[1,4]diazepino[1,7,6-ef][1,5]benzoxazepin-7-yl)-2-(3,3,3-trifluoropropyl)succinamide], the “antitumor activity with oral administration (PO)” value in the experiment with human tumor xenografts is listed as “showed antitumor activity”. For `NC(=O)[C@@H](CC1CC1)[C@@H](CCC(F)(F)F)C(=O)N[C@H]1N=C(c2ccccc2)c2cccc3c2N(CCO3)C1=O` [Example 6, (2R,3S)-3-(Cyclopropylmethyl)-N-((6S)-5-oxo-8-phenyl-2,3,5,6-tetrahydro[1,4]oxazino[2,3,4-jk][1,4]benzodiazepin-6-yl)-2-(3,3,3-trifluoropropyl)succinamide], it took 14.8 nM to reach half-maximal inhibition in the experiment on human Notch 3 (IC50). With `NC(=O)[C@@H](CCCF)[C@@H](CCC(F)(F)F)C(=O)N[C@H]1N=C(c2ccccc2)c2cccc3c2N(CCO3)C1=O` [Example 8, (2R,3S)-3-(3-Fluoropropyl)-N-((6S)-5-oxo-8-phenyl-2,3,5,6-tetrahydro[1,4]oxazino[2,3,4-jk][1,4]benzodiazepin-6-yl)-2-(3,3,3-trifluoropropyl)succinamide], the IC50 in the experiment on human Notch 3 was 28.1 nM; in the experiment on human Notch 1, 14.8 nM. For the molecule `Cc1cccc(C2=N[C@H](NC(=O)[C@H](CCC(F)(F)F)[C@H](CCC(F)(F)F)C(N)=O)C(=O)N3CCOc4cccc2c43)c1` [Example 11, (2R,3S)—N-((6S)-8-(3-Methylphenyl)-5-oxo-2,3,5,6-tetrahydro[1,4]oxazino[2,3,4-jk][1,4]benzodiazepin-6-yl)-2,3-bis(3,3,3-trifluoropropyl)succinamide], the IC50 in the experiment on human Notch 3 came out at 14.7 nM. This counts as double-digit nanomolar. `Cc1cccc(C2=N[C@H](NC(=O)[C@H](CCC(F)(F)F)[C@@H](C(N)=O)c3ccccc3)C(=O)N3CCOc4cccc2c43)c1` [Example 13, (2R,3R)—N-((6S)-8-(3-Methylphenyl)-5-oxo-2,3,5,6-tetrahydro[1,4]oxazino[2,3,4-jk][1,4]benzodiazepin-6-yl)-3-phenyl-2-(3,3,3-trifluoropropyl)succinamide] showed an IC50 in the experiment with human Notch 1 of 14.8 nM. On to `CCC[C@H](C(N)=O)[C@@H](CCC(F)(F)F)C(=O)N[C@H]1N=C(c2cccc(Cl)c2)c2cccc3c2N(CCO3)C1=O` [Example 15, (2R,3S)—N-((6S)-8-(3-Chlorophenyl)-5-oxo-2,3,5,6-tetrahydro[1,4]oxazino[2,3,4-jk][1,4]benzodiazepin-6-yl)-3-propyl-2-(3,3,3-trifluoropropyl)succinamide], for which the values for the IC50 in the experiment with human Notch 3 and with human Notch 1 were 28.3 nM and 16.9 nM, respectively. For `CCC[C@@H](C(=O)N[C@H]1N=C(c2ccccc2)c2cccc3c2N(CCO3)C1=O)[C@H](CCC(F)(F)F)C(N)=O` [Example 17, (2R,3S)—N-((6S)-5-Oxo-8-phenyl-2,3,5,6-tetrahydro[1,4]oxazino[2,3,4-jk][1,4]benzodiazepin-6-yl)-2-propyl-3-(3,3,3-trifluoropropyl)succinamide], in that order: 20.1 nM and 13.9 nM. For the molecule `NC(=O)[C@@H](CC1CC1)[C@@H](CC1CC1)C(=O)N[C@H]1N=C(c2ccccc2)c2cccc3c2N(CCO3)C1=O` [Example 18, (2R,3S)-2,3-Bis(cyclopropylmethyl)-N-((6S)-5-oxo-8-phenyl-2,3,5,6-tetrahydro[1,4]oxazino[2,3,4-jk][1,4]benzodiazepin-6-yl)succinamide], the IC50 in the experiment with human Notch 3 amounted to 16.4 nM; with human Notch 1, 21.9 nM. Consider `NC(=O)[C@@H](CC1CC1)[C@@H](CCC(F)(F)F)C(=O)N[C@H]1N=C(c2ccccc2)c2cccc3c2N(CCCO3)C1=O` [Example 23, (2R,3S)-3-(Cyclopropylmethyl)-N-((7S)-6-oxo-9-phenyl-3,4,6,7-tetrahydro-2H-[1,4]diazepino[1,7,6-ef][1,5]benzoxazepin-7-yl)-2-(3,3,3-trifluoropropyl)succinamide], for which the IC50 in the experiment with human Notch 3 turned out to be 14.2 nM.

With `Cc1nocc1[C@H](C(N)=O)[C@@H](CCC(F)(F)F)C(=O)N[C@H]1N=C(c2ccccc2)c2cccc3c2N(CCN3)C1=O` [Example 24, (2R,3R)-3-(3-Methyl-4-isoxazolyl)-N-((6S)-5-oxo-8-phenyl-2,3,5,6-tetrahydro-1H-[1,4]diazepino[1,7,6-de]quinoxalin-6-yl)-2-(3,3,3-trifluoropropyl)succinamide], the IC50 with human Notch 3 amounted to 28.3 nM; with human Notch 1, 16.9 nM. On the same counts, the results for `CCC[C@H](C(N)=O)[C@@H](CCC(F)(F)F)C(=O)N[C@H]1N=C(c2ccccc2)c2cccc3c2N(CCN3)C1=O` [Example 25, (2R,3S)—N-((6S)-5-Oxo-8-phenyl-2,3,5,6-tetrahydro-1H-[1,4]diazepino[1,7,6-de]quinoxalin-6-yl)-3-propyl-2-(3,3,3-trifluoropropyl)succinamide] are 16.9 nM and 14.5 nM. For `NC(=O)[C@@H](c1ccccc1)[C@@H](CCC(F)(F)F)C(=O)N[C@H]1N=C(c2ccccc2)c2cccc3c2N(CCN3)C1=O` [Example 27, (2R,3R)—N-((6S)-5-Oxo-8-phenyl-2,3,5,6-tetrahydro-1H-[1,4]diazepino[1,7,6-de]quinoxalin-6-yl)-3-phenyl-2-(3,3,3-trifluoropropyl)succinamide], in the experiment with human Notch 1, the IC50 came out at 15.1 nM.
